Among the test systems are HCC-2998 colon; SN12C renal; SW-620 colon; NCI-H23 lung; SF-539 CNS; MALME-3M melanoma; UACC-62 melanoma; SF-268 CNS; SR leukemia; NCI-H460 lung.
Test in all cases: DTP human tumour cell line panel, 48 h

The structures appear in SMILES notation.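 Method: 48-hour compound exposure of cells in 96-well plates, five concentrations, linear interpolation of endpoints. GI50 = concentration required for 50% inhibition of growth. TGI: concentration producing complete growth inhibition.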

Turning to `COc1ccc(OC)c2c1[nH]c(=O)c1c3ncccc3cn21`, the GI50 in the test on HCC-2998 colon was 4.44 µM; in the test with SN12C renal it was 4.48 µM; with SW-620 colon, 1.55 µM; in the test on NCI-H23 lung it was 3.58 µM; with SF-539 CNS it was 3.96 µM; with MALME-3M melanoma, 5.51 µM. For the same molecule, the GI50 is 4.43 µM with UACC-62 melanoma, 4.21 µM in the test on SF-268 CNS, 3.43 µM in the test with SR leukemia and 1.61 µM in the test on NCI-H460 lung. Further, the total growth inhibition concentration (TGI) is greater than 100 µM in the test with HCC-2998 colon; greater than 100 µM in the test with SN12C renal; 5.38 µM in the test with SW-620 colon; greater than 100 µM in the test on NCI-H23 lung; greater than 100 µM in the test on SF-539 CNS; greater than 100 µM in the test with MALME-3M melanoma. Moreover, the TGI with UACC-62 melanoma was greater than 100 µM; in the test on SF-268 CNS, greater than 100 µM; in the test with SR leukemia, greater than 100 µM; with NCI-H460 lung, 3.39 µM.
On to `Cn1c2ccc(Br)cc2c2c3c(c4c5ccccc5[nH]c4c21)C(=O)N(O)C3=O`, for which the GI50 with HCC-2998 colon was 0.473 µM; in the test on SN12C renal it was 0.0814 µM; in the test with SW-620 colon, 0.0787 µM; with NCI-H23 lung it was 0.0872 µM; in the test on SF-539 CNS it was 0.073 µM; in the test on MALME-3M melanoma it was 0.186 µM. In addition, the 50% growth inhibitory concentration (GI50) in the test with UACC-62 melanoma is 0.183 µM; in the test on SF-268 CNS it was 0.0763 µM; in the test on SR leukemia, 0.0228 µM; in the test on NCI-H460 lung, 0.04 µM. Further, the total growth inhibition concentration (TGI) with HCC-2998 colon worked out at 1.57 µM; in the test on SN12C renal, 0.445 µM; in the test with SW-620 colon it was 0.394 µM; in the test with NCI-H23 lung, 0.398 µM; with SF-539 CNS it was 0.217 µM; in the test on MALME-3M melanoma it was 0.386 µM. Besides, the TGI was 0.529 µM in the test on UACC-62 melanoma, 0.72 µM in the test with SF-268 CNS, 2.64 µM in the test with SR leukemia and 0.182 µM in the test on NCI-H460 lung.
Regarding `COc1cc(-c2nc(-c3nc4ccccc4[nH]3)cc3c2[nH]c2ccccc23)cc(OC)c1OC`, the GI50 with HCC-2998 colon was 7.32 µM; with SN12C renal, 6.27 µM; with SW-620 colon it was 7.14 µM; in the test on NCI-H23 lung, 4.4 µM; in the test with SF-539 CNS it was 23.1 µM; in the test on MALME-3M melanoma, 4.31 µM. The GI50 in the test on UACC-62 melanoma was 3.38 µM; in the test with SF-268 CNS, 4.81 µM; with SR leukemia it was 9.5 µM; with NCI-H460 lung it was 3.96 µM. The TGI in the test on HCC-2998 colon, in the test with SN12C renal, in the test with SW-620 colon, with NCI-H23 lung, in the test on SF-539 CNS and in the test with MALME-3M melanoma was greater than 100 µM in each case. Further, the TGI in the test with UACC-62 melanoma, in the test with SF-268 CNS, with SR leukemia and in the test with NCI-H460 lung was greater than 100 µM each time.

Broadly, the GI50 is the concentration at which growth is held to half of that of the control. Broadly, the TGI is the concentration at which net growth stops. A higher TGI goes with lower sensitivity of the cells.

The values above are taken from PubChem BioAssay (NCI).
